This test has as its target T1, Angiotensin II receptor (Oryctolagus cuniculus, UniProt P34976).
T1 construct: from tissue; host or cells: rabbit aorta
T1 sequence (P34976 1-359): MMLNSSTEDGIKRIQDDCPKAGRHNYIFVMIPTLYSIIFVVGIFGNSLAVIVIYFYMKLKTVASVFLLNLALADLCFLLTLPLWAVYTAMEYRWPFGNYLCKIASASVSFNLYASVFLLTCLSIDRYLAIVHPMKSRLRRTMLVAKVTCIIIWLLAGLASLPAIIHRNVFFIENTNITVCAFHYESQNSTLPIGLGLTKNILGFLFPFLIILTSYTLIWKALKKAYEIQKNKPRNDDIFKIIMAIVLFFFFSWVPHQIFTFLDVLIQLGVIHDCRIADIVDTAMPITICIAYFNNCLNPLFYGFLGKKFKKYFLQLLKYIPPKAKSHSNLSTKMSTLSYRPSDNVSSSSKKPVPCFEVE
As to the kind of experiment: Receptor selectivity, rabbit aorta. The format is cell-based. The following applies: read-out: pKB Angiotensin II (converted). The procedure:
Selectivity of action of the present compounds was tested against a range of different receptors, e.g., β1- and α2-adrenergic, muscarinic cholinergic, serotoninergic (5-HT2A), histaminergic (H1), angiotensin II, endothelin (ETA and B,), as well as calcium and potassium channels. Rat aorta was used to study the effect of the compounds on 5-HT2A, ETA, calcium and potassium channels. Angiotensin II receptor antagonistic activity was studied in rabbit aorta. Muscarinic cholinergic receptor and ETB receptor antagonistic activity was studied in rat trachea, while guinea pig trachea was used to study H1 receptor antagonistic activity. Electrically stimulated rat vas deferens was used to investigate the effect of α2-adrenoceptors, while β1-adrenoceptor antagonistic activity was studied using electrically stimulated rat ventricular strips. Results of this selectivity study is shown in (Table 2).

Experimental findings from patent US6410735B1, “1-(4-arylpiperazin-1-y1)-ω-[N-(α,ω-dicarboximido)]-alkanes useful as uro-selective α1-adrenoceptor blockers” (Ranbaxy Laboratories Limited, priority 1997, dated 2002) are described below.

`COc1ccccc1N1CCN(CCCCN2C(=O)CCC2=O)CC1` [Compound 9, 1-[4-(2-Methoxyphenyl)piperazin-1-yl]-4-(2,5-dioxopyrrolidin-1-yl)butane]: the Kb was 2.51 µM.

For the compound `COc1ccccc1N1CCN(CCCN2C(=O)CCCC2=O)CC1` [Compound 13, 1-[4-(2-Methoxyphenyl)piperazin-1-yl]-3-(2,6-dioxopiperidin-1-yl)propane], the Kb was 5.01 µM.
